# In patent US8383139B2 (Bayer CropScience AG, priority 2008, dated 2013):
# Experiment: log P by HPLC on reversed-phase columns (C 18), EEC Directive 79/831 Annex V.A8
# Assay type: physicochemical
# Conditions: [a] HPLC, acid region pH 2.3, 0.1% aqueous phosphoric acid and acetonitrile
row,log p,SMILES
1,2.18^[a],Cc1cc(Oc2nc(Cc3ccc(Cl)cc3)ns2)c(C)cc1N=CN(C)CC(F)F [Example 53]
2,1.86^[a],CCN(C)C=Nc1cc(C)c(Oc2nc(Cc3ccc(F)c(F)c3)ns2)cc1C [Example 54]
3,2.02^[a],Cc1cc(Oc2nc(Cc3ccc(F)cc3F)ns2)c(C)cc1N=CN1CCCCC1 [Example 55]
4,2.21^[a],CCN(C)C=Nc1cc(C)c(Oc2nc(Cc3ccc(OC(F)(F)F)cc3)ns2)cc1C [Example 56]
5,2.05^[a],Cc1cc(Oc2nc(Cc3ccc(F)cc3)ns2)c(C)cc1N=CN1CCCCC1 [Example 57]
6,2.71^[a],Cc1cc(Oc2nc(Cc3ccc(OC(F)(F)F)cc3)ns2)c(C)cc1N=CN1CCCCC1 [Example 58]
7,2.23^[a],Cc1cc(Oc2nc(Cc3cccc(Br)c3)ns2)c(C)cc1N=CN1CCCCC1 [Example 59]
8,1.74^[a],CCN(C)C=Nc1cc(C)c(Oc2nc(Cc3ccc(F)cc3)ns2)cc1C [Example 60]
9,1.97^[a],CCN(C)C=Nc1cc(C)c(Oc2nc(Cc3ccccc3Cl)ns2)cc1C [Example 61]
10,2.43^[a],Cc1cc(Oc2nc(Cc3ccccc3Cl)ns2)c(C)cc1N=CN1CCCCC1 [Example 62]
11,2.39^[a],Cc1cc(Oc2nc(Cc3ccc(F)c(F)c3)ns2)c(C)cc1N=CN1CCCCC1 [Example 63]
12,2.11^[a],CCN(C)C=Nc1cc(C)c(Oc2nc(Cc3ccc([N+](=O)[O-])cc3)ns2)cc1C [Example 64]
13,2.38^[a],CCN(C)C=Nc1cc(C)c(Oc2nc(Cc3cccc(Br)c3)ns2)cc1C [Example 65]
14,1.66^[a],CCN(C)C=Nc1cc(C)c(Oc2nc(Cc3cc(F)ccc3F)ns2)cc1C [Example 67]
15,2.06^[a],Cc1ccccc1Cc1nsc(Oc2cc(C)c(N=CN3CCCCC3)cc2C)n1 [Example 68]
16,1.63^[a],CCN(C)C=Nc1cc(C)c(Oc2nc(Cc3ccc(C#N)cc3)ns2)cc1C [Example 69]
17,2.45^[a],Cc1cc(Oc2nc(Cc3ccc(-c4ccccc4)cc3)ns2)c(C)cc1N=CN1CCCCC1 [Example 70]
18,2.29^[a],CCN(C)C=Nc1cc(C)c(Oc2nc(Cc3ccc(C(F)(F)F)cc3)ns2)cc1C [Example 71]
19,1.89^[a],CCN(C)C=Nc1cc(C)c(Oc2nc(Cc3ccccc3C)ns2)cc1C [Example 72]
20,2.8^[a],CCN(C)C=Nc1cc(C)c(Oc2nc(Cc3ccc(-c4ccccc4)cc3)ns2)cc1C [Example 73]
21,2.33^[a],CCN(C)C=Nc1cc(C)c(Oc2nc(Cc3c(F)cccc3Cl)ns2)cc1C [Example 74]
22,2.98^[a],CCN(C)C=Nc1cc(C)c(Oc2nc(Cc3ccc(OC)cc3)ns2)cc1C [Example 75]
23,1.9^[a],COc1ccc(Cc2nsc(Oc3cc(C)c(N=CN4CCCCC4)cc3C)n2)cc1 [Example 76]
24,2.12^[a],Cc1cc(Oc2nc(Cc3c(F)cccc3Cl)ns2)c(C)cc1N=CN1CCCCC1 [Example 77]
25,1.87^[a],CCN(C)C=Nc1cc(C)c(Oc2nc(Cc3cccc(F)c3)ns2)cc1C [Example 78]

row,log p,SMILES
1,2.66^[a],Cc1cc(Oc2nc(Cc3ccc(C(F)(F)F)cc3)ns2)c(C)cc1N=CN1CCCCC1 [Example 79]
2,2.72^[a],CCN(C)C=Nc1cc(C)c(Oc2nc(Cc3ccc(Oc4ccccc4)cc3)ns2)cc1C [Example 80]
3,2.25^[a],Cc1cc(Oc2nc(Cc3cccc(F)c3)ns2)c(C)cc1N=CN1CCCCC1 [Example 81]
4,2.06^[a],Cc1cc(Oc2nc(Cc3ccc(C#N)cc3)ns2)c(C)cc1N=CN1CCCCC1 [Example 82]
5,2.79^[a],Cc1ccc(Br)cc1Cc1nsc(Oc2cc(C)c(N=CN3CCCCC3)cc2C)n1 [Example 83]
6,2.4^[a],Cc1cc(Oc2nc(Cc3cc(F)ccc3F)ns2)c(C)cc1N=CN1CCCCC1 [Example 84]
7,2.85^[a],Cc1cc(Oc2nc(Cc3ccc(Oc4ccccc4)cc3)ns2)c(C)cc1N=CN1CCCCC1 [Example 85]
8,2.6^[a],Cc1cc(Oc2nc(Cc3c(Cl)cccc3Cl)ns2)c(C)cc1N=CN1CCCCC1 [Example 86]
9,2.17^[a],COc1cccc(Cc2nsc(Oc3cc(C)c(N=CN4CCCCC4)cc3C)n2)c1 [Example 87]
10,2.67^[a],Cc1cc(Oc2nc(Cc3ccc(SC(F)(F)F)cc3)ns2)c(C)cc1N=CN1CCCCC1 [Example 88]
11,2.06^[a],CCOc1ccc(Cc2nsc(Oc3cc(C)c(N=CN(C)CC)cc3C)n2)cc1 [Example 89]
12,2.23^[a],CCOc1ccc(Cc2nsc(Oc3cc(C)c(N=CN4CCCCC4)cc3C)n2)cc1 [Example 90]
13,2.44^[a],Cc1cc(Oc2nc(Cc3ccc(F)c(C(F)(F)F)c3)ns2)c(C)cc1N=CN1CCCCC1 [Example 91]
14,2.43^[a],Cc1cc(Oc2nc(Cc3ccc4ccccc4c3)ns2)c(C)cc1N=CN1CCCCC1 [Example 92]
15,2.38^[a],Cc1cc(Oc2nc(Cc3cccc(Cl)c3Cl)ns2)c(C)cc1N=CN1CCCCC1 [Example 93]
16,2.24^[a],CCN(C)C=Nc1cc(C)c(Oc2nc(Cc3ccc(F)c(C(F)(F)F)c3)ns2)cc1C [Example 94]
17,2.51^[a],CCN(C)C=Nc1cc(Cl)c(Oc2nc(Cc3ccc(SC(F)(F)F)cc3)ns2)cc1C [Example 95]
18,2.21^[a],CCN(C)C=Nc1cc(C)c(Oc2nc(Cc3cccc(Cl)c3Cl)ns2)cc1C [Example 96]
19,2.22^[a],CCN(C)C=Nc1cc(C)c(Oc2nc(Cc3ccc4ccccc4c3)ns2)cc1C [Example 97]
20,2.36^[a],Cc1cc(Oc2nc(Cc3ccccc3Br)ns2)c(C)cc1N=CN1CCCCC1 [Example 98]
21,2.12^[a],CCN(C)C=Nc1cc(C)c(Oc2nc(Cc3ccccc3F)ns2)cc1C [Example 99]
22,2.32^[a],CCN(C)C=Nc1cc(C)c(Oc2nc(Cc3ccccc3Br)ns2)cc1C [Example 100]
23,2.85^[a],CCOCC(NC=Nc1cc(C)c(Oc2nc(Cc3ccc(OC(F)(F)F)cc3)ns2)cc1C)C1CC1 (stereo not shown) [Example 101]
24,2.78^[a],CCN(C)C=Nc1cc(C)c(Oc2nc(Cc3ccc(SC(F)(F)F)cc3)ns2)cc1C [Example 102]
25,2.44^[a],Cc1ccc(Cc2nsc(Oc3cc(C)c(N=CN4CCCCC4)cc3C)n2)c([N+](=O)[O-])c1 [Example 103]

# Same assay, conditions: pH 2.3, given in synthesis examples; read-out: log P (pH2.3)
row,SMILES,chromatographic logP
1,O=c1oc(C2(c3ccc(Cl)cc3)CC2)ns1,3.59

# Same assay, conditions: reversed-phase C18 HPLC column, pH 2.3, [a] HPLC, acid region pH 2.3, 0.1% aqueous phosphoric acid and acetonitrile; read-out: log p
row,chromatographic logP,SMILES
1,2.67,"Cc1cc(Oc2nc(C(C)c3ccc(Cl)cc3)ns2)c(Cl)cc1N=CN1CCCCC1 (stereo not shown) [Example 21, 5-chloro-4-({3-[1-(4-chlorophenyl)ethyl]-1,2,4-thiadiazol-5-yl}oxy)-2-methyl-N-(piperidin-1-ylmethylidene)aniline]"

# Same assay, conditions: reversed-phase C18 HPLC column, pH 2.3, pH 2.3, given in synthesis examples; read-out: log P (pH2.3)
row,chromatographic logP,SMILES
1,4.97,"Cc1ccc(S(=O)(=O)c2nc(C3(c4ccc(Cl)cc4)CC3)ns2)cc1 [3-[1-(4-Chlorophenyl)cyclopropyl]-5-[(4-methylphenyl)sulphonyl]-1,2,4-thiadiazole]"
2,4.44,"Cc1cc(Oc2nc(C3(c4ccc(Cl)cc4)CC3)ns2)c(C)cc1N [4-({3-[1-(4-Chlorophenyl)cyclopropyl]-1,2,4-thiadiazol-5-yl}oxy)-2,5-dimethylaniline]"
3,3.68,"Cc1cc(Oc2nc(Cc3cccc(Cl)c3)ns2)c(C)cc1N [4-{[3-(3-Chlorobenzyl)-1,2,4-thiadiazol-5-yl]oxy}-2,5-dimethylaniline]"
